Data reported in US20260092074A1, “Annelated Pyridines as Steroidogenesis Inhibitors, Preparation Method and Use Thereof” (Guangzhou Vinnocent Pharmaceutical Limited, priority 2022, published 2026).

Legend:
[1] = target: T1, human CYP11B1 (Homo sapiens, UniProt P15538); test: Inhibition of hCYP11B1 in transfected V79 cells; format: cell-based; conditions: hamster V79 cells expressing human CYP11B1; substrate 11-deoxycortisol 200 nM
T1 construct: expressed in transfected cells
T1 sequence (P15538 25-503): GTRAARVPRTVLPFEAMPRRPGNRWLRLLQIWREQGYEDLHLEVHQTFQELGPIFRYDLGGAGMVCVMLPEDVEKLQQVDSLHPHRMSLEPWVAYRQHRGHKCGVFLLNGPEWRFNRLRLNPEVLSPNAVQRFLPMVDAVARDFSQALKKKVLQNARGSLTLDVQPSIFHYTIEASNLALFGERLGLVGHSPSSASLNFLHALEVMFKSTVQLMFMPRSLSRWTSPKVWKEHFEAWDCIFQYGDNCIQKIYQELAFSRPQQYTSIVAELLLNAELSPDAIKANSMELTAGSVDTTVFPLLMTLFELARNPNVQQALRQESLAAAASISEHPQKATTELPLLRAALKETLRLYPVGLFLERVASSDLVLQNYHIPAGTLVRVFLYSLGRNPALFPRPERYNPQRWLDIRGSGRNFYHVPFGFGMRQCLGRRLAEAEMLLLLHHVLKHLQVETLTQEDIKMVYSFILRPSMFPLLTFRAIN
Outline: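 Reactions started with 200 nM 11-deoxycortisol, ran for 30 min and were stopped with ethyl acetate, after a 2 h compound preincubation. The host was stably transfected V79 hamster cells carrying human CYP11B1 plus rat P450 reductase. Percent inhibition, from LC-MS/MS or HPLC (260 nm) quantitation of substrate and product, gave the IC50.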

[2] = target: T2, human CYP11B2 (Homo sapiens, UniProt P19099); test: Inhibition of hCYP11B2 in transfected V79 cells; format: cell-based; conditions: hamster V79 cells expressing human CYP11B2; substrate 11-deoxycorticosterone 200 nM
T2 construct: expressed in transfected cells
T2 sequence (P19099 25-503): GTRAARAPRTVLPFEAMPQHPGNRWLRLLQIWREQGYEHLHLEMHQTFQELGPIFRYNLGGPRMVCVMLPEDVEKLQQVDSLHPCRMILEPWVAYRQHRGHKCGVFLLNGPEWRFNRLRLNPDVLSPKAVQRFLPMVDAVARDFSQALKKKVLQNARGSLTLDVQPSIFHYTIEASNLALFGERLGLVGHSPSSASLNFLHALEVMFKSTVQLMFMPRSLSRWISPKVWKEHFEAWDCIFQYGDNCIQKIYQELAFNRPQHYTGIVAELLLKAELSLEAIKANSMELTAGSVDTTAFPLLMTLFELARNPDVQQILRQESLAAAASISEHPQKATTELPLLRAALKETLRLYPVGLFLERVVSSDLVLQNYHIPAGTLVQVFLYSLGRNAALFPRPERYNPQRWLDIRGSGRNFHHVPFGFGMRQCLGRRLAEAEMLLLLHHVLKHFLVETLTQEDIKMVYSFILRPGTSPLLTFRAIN
Outline: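 The substrate (200 nM, 30 min) was added after a 2 hour compound pre-incubation in lentivirus-transduced V79 cells stably expressing human CYP11B2 plus rat NADPH-P450 reductase.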

Structure (SMILES)	IC50 [1]	IC50 [2]
COc1ccc(S(=O)(=O)N2CC(S(=O)(=O)N3CCSc4c(-c5ccc(C#N)cc5)cncc43)C2)cc1 [S78, 4-(4-((1-((4-Methoxyphenyl)sulfonyl)azetidin-3-yl)sulfonyl)-3,4-dihydro-2H-pyrido[4,3-b][1,4]thiazin-8-yl)benzonitrile]	38 nM	1.2 nM
N#Cc1ccc(-c2cncc3c2SCCN3S(=O)(=O)c2cccc([N+](=O)[O-])c2)cc1 [S18, 4-(4-((3-Nitrophenyl)sulfonyl)-3,4-dihydro-2H-pyrido[4,3-b][1,4]thiazin-8-yl)benzonitrile]	2 nM	0.1 nM
COc1ccc(CC(=O)N2CCOc3c(-c4ccc(C#N)cc4)cncc32)cc1 [O40, 4-(4-(2-(4-Methoxyphenyl)acetyl)-3,4-dihydro-2H-pyrido[4,3-b][1,4]oxazin-8-yl)benzonitrile]	73 nM	0.8 nM
N#Cc1ccc(-c2cncc3c2SCC(=O)N3)cc1 [S99, 4-(3-Oxo-3,4-dihydro-2H-pyrido[4,3-b][1,4]thiazin-8-yl)benzonitrile]	703 nM	6.9 nM
N#Cc1ccc(-c2cncc3c2SCCN3S(=O)(=O)c2cccnc2)cc1 [S25, 4-(4-(Pyridin-3-ylsulfonyl)-3,4-dihydro-2H-pyrido[4,3-b][1,4]thiazin-8-yl)benzonitrile]	1.82 nM	0.04 nM
O=S(=O)(C1CNC1)N1CCSc2c(-c3cc4cc(Cl)ccc4o3)cncc21 [S62, 4-(Azetidin-3-ylsulfonyl)-8-(5-chlorobenzofuran-2-yl)-3,4-dihydro-2H-pyrido[4,3-b][1,4]thiazine]	516 nM	7.2 nM
Cc1ccsc1C(=O)N1CCc2c(-c3ccc(C#N)cc3)cncc21 [C45, 4-(1-(3-Methylthiophene-2-carbonyl)-2,3-dihydro-1H-pyrrolo[2,3-c]pyridin-4-yl)benzonitrile]	152 nM	20 nM
N#Cc1ccc(-c2cncc3c2CCN3C(=O)c2cccc(C#N)c2)cc1 [C37, 3-(4-(4-Cyanophenyl)-2,3-dihydro-1H-pyrrolo[2,3-c]pyridine-1-carbonyl)benzonitrile]	766 nM	60 nM
N#Cc1ccc(-c2cncc3c2CCN3C(=O)c2ccc(CBr)cc2)cc1 [C49, 4-(1-(4-(Bromomethyl)benzoyl)-2,3-dihydro-1H-pyrrolo[2,3-c]pyridin-4-yl)benzonitrile]	971 nM	25 nM
N#Cc1ccc(-c2cncc3c2SCCN3S(=O)(=O)C2CN(C(=O)c3cccc(F)c3)C2)cc1 [S69, 4-(4-((1-(3-Fluorobenzoyl)azetidin-3-yl)sulfonyl)-3,4-dihydro-2H-pyrido[4,3-b][1,4]thiazin-8-yl)benzonitrile]	73 nM	1.3 nM
O=C(c1ccc(F)cc1)n1ccc2c(-c3ccc4occc4c3)cncc21 [E33, (4-(Benzofuran-5-yl)-1H-pyrrolo[2,3-c]pyridin-1-yl)(4-fluorophenyl)methanone]	673 nM	32 nM
N#Cc1ccc(-c2cncc3c2CCN3C(=O)Cc2cccc(C(F)(F)F)c2)cc1 [C74, 4-(1-(2-(3-(Trifluoromethyl)phenyl)acetyl)-2,3-dihydro-1H-pyrrolo[2,3-c]pyridin-4-yl)benzonitrile]	53 nM	9 nM
COc1ccc(C(=O)N2CCOc3c(-c4ccc(C#N)cc4)cncc32)cc1 [O22, 4-(4-(4-Methoxybenzoyl)-3,4-dihydro-2H-pyrido[4,3-b][1,4]oxazin-8-yl)benzonitrile]	3400 nM	108 nM
Cc1cccc(CC(=O)N2CCc3c(-c4ccc(C#N)cc4)cncc32)c1 [C66, 4-(1-(2-(m-Tolyl)acetyl)-2,3-dihydro-1H-pyrrolo[2,3-c]pyridin-4-yl)benzonitrile]	92 nM	0.9 nM
N#Cc1ccc(CN2CC(S(=O)(=O)N3CCSc4c(-c5ccc(C#N)cc5)cncc43)C2)cc1 [S80, 4-(4-((1-(4-Cyanobenzyl)azetidin-3-yl)sulfonyl)-3,4-dihydro-2H-pyrido[4,3-b][1,4]thiazin-8-yl)benzonitrile]	18 nM	0.6 nM
N#Cc1ccc(-c2cncc3c2OCCN3C(=O)c2ccc(F)cc2)cc1 [O19, 4-(4-(4-Fluorobenzoyl)-3,4-dihydro-2H-pyrido[4,3-b][1,4]oxazin-8-yl)benzonitrile]	1350 nM	23.1 nM
COc1ccc(S(=O)(=O)N2CC(C(=O)N3CCOc4c(-c5ccc(C#N)cc5)cncc43)C2)cc1 [O67, 4-(4-(1-((4-Methoxyphenyl)sulfonyl)azetidine-3-carbonyl)-3,4-dihydro-2H-pyrido[4,3-b][1, 4]oxazin-8-yl)benzonitrile]	496 nM	2.7 nM
COc1cccc(C(=O)N2CC(C(=O)N3CCOc4c(-c5ccc(C#N)cc5)cncc43)C2)c1 [O76, 4-(4-(1-(3-Methoxybenzoyl)azetidine-3-carbonyl)-3,4-dihydro-2H-pyrido[4,3-b][1,4]oxazin-8-yl)benzonitrile]	146 nM	1.6 nM
O=C(c1ccc(F)cc1)n1ccc2c(-c3ccc4nccn4c3)cncc21 [E37, (4-Fluorophenyl)(4-(imidazo[1,2-a]pyridin-6-yl)-1H-pyrrolo[2,3-c]pyridin-1-yl)methanone]	455 nM	0.6 nM
COc1ccc(S(=O)(=O)N2CCSc3c(-c4cccc(C#N)c4)cncc32)cc1 [S27, 3-(4-((4-Methoxyphenyl)sulfonyl)-3,4-dihydro-2H-pyrido[4,3-b][1,4]thiazin-8-yl)benzonitrile]	2.9 nM	0.7 nM
N#Cc1ccc(-c2cncc3c2CCN3S(=O)(=O)c2ccc(Cl)nc2)cc1 [C5, 4-(1-((6-Chloropyridin-3-yl)sulfonyl)-2,3-dihydro-1H-pyrrolo[2,3-c]pyridin-4-yl)benzonitrile]	1.1 nM	0.4 nM
COc1cccc(C(=O)N2CC(S(=O)(=O)N3CCOc4c(-c5ccc(C#N)cc5)cncc43)C2)c1 [O112, 4-(4-((1-(3-Methoxybenzoyl)azetidin-3-yl)sulfonyl)-3,4-dihydro-2H-pyrido[4,3-b][1,4]oxazin-8-yl)benzonitrile]	169 nM	27 nM
